# Assay results taken from patent publication US10857236B2, “Sustained release nanocomposite, a process for producing the same and use thereof” (SZEGEDI TUDOMÁNYEGYETEM, priority 2015, dated 2020).
# Experiments:
# [1] = stability study of KYNA in MQ with and without 150 mM NaCl and in buffer
# Method: New types of nanocomposites have been prepared within physiological conditions, in the nano-size range for the purpose of crossing the pharmaceutically active ingredients through the blood-brain barrier. […] The amount of the material constituting the composites, than the conditions of the preparation were determined. Stability studies were performed for the active ingredients by ensuring various conditions (pH=3 to 8 in physiological solution and without said physiological solution, in both phosphate and HEPES buffers). […]
# The release tests were made in case of KYNA in PBS buffer at pH=7.4. (physiological solution). […]
# [2] = in vitro drug release in Franz cell (vertical diffusion cell), kinetic models; assay type: physicochemical
# Method: FIG. 7: A schematic figure of the Franz-cell (vertical diffusion cell) with which the in vitro drug release experiments were carried out. […] The active ingredient release tests were made at two temperatures: at 25 and 37.5° C. (FIGS. 7 and 8).
# [3] = KYNA permeability in in vitro blood-brain barrier model; assay type: in vitro ADME, rat; conditions: Wistar, rat, 20 μM KYNA final concentration, corrected for empty filters, read-out: permeability coefficient Pe
# Method: (§1) The permeability of KYNA through the blood-brain barrier from BSA/KYNA/PAH nanocapsules was determined by means of an in vitro blood-brain barrier model. The description of the model is the following: microvessel rat brain endothelial cells were isolated from 2 to 3 weeks old Wistar animals by means of a method described earlier (Wilhelm és munkatársai, 2011). After the removal of the meninges, the brain tissue was dissectioned to small pieces, then it was digested by type 2 collagenase and collagenase/dispase, finally it was centrifuged on percoll gradient. The microvessel fragments were plated on collagenIV/fibronectin-coated Petri dishes and were cultured in DMEM/F12 in the presence of plasma serum and growth factors. […]
# (§2) From these samples the concentration of KYNA was determined using an Agilent 1100 HPLC-MS system (Agilent Technologies, Santa Clara, Calif., USA).
# (§3) To calculate the permeability coefficient the following formulae were applied: PappdQ/(dT×A×C0), wherein dQ stands for the crossed amount of the material, dT stands for the incubation period of time (1 hour), A stands for the surface of the filter and C0 stands for the starting concentration (20 μM). The values thus calculated were compared to the values measured on empty (not containing cells) filters according to the following method: […]).
# [4] = system: somatosensory evoked potentials (SEPs); assay: in vivo amplitudes of somatosensory evoked potentials after peripheral administration; parameters: species or system male Wistar rats; conditions: intraperitoneal administration, 300 mg/kg, n=5
# Text: The preparation of the corresponding composite (FIG. 1) was accomplished with the following parameters. […] At a neutral pH the compact structure of the protein offers an opportunity to enclose large amount of kynurenic acid. In the “heart shaped” conformation of the BSA, the hydrophobic parts directed inside the conformation can form hydrogen-bridge, hydrophobic, furthermore ππ interactions with the KYNA molecule. […] After the in vitro drug release experiments the KYNA permeability was investigated with the help of an in vitro blood-brain barrier model. […] The animal experiments were performed on male Wistar rats (300 g, n=30). During the tests the effect of the peripherally administered KYNA was investigated in the central nervous system.
# [5] = system: microvessel rat brain endothelial cells; assay: KYNA permeability in in vitro blood-brain barrier model; assay type: in vitro ADME; conditions: 20 μM KYNA final concentration, 1 hour, corrected for empty filters
# Method: as §1, §2, §3
# [6] = DOPA containing composites, 25° C.
# [7] = DOPA containing composites, 37.5° C.
# [8] = KYNA containing composites, 25° C.
# [9] = KYNA containing composites, 37.5° C.
# [10] = IBU containing composites, 25° C.
# [11] = IBU containing composites, 37.5° C.
compound,measurement,setting,value
"O=C(O)c1cc(=O)c2ccccc2[nH]1 [KYNA, kynurenic acid]",stability of KYNA,"[1]; HEPES (150 mM NaCl), 0 h",stable
same,stability of KYNA,"[1]; HEPES (150 mM NaCl), 24 h",unstable
same,stability of KYNA,"[1]; HEPES (150 mM NaCl), 48 h",unstable
same,stability of KYNA,"[1]; HEPES (150 mM NaCl), 72 h",unstable
same,stability of KYNA,"[1]; HEPES (150 mM NaCl), 96 h",unstable
same,demonstrated stability until,"[1]; PBS buffer at pH=7.4 (physiological solution), release tests of IBU",96 h
same,demonstrated stability until,"[1]; PBS buffer at pH=7.4 (physiological solution), release tests of KYNA",72 h
same,degrading of KYNA as a result of the buffers,[1]; in buffer,already starts in the first hours
same,stability of KYNA,"[1]; pH 3 (MQ + 150 mM NaCl), 0 h",stable
same,stability of KYNA,"[1]; pH 3 (MQ + 150 mM NaCl), 24 h",stable
same,stability of KYNA,"[1]; pH 3 (MQ + 150 mM NaCl), 48 h",stable
same,stability of KYNA,"[1]; pH 3 (MQ + 150 mM NaCl), 72 h",stable
same,stability of KYNA,"[1]; pH 3 (MQ + 150 mM NaCl), 96 h",unstable
same,stability of KYNA,"[1]; pH 3 (MQ), 0 h",stable
same,stability of KYNA,"[1]; pH 3 (MQ), 24 h",stable
same,stability of KYNA,"[1]; pH 3 (MQ), 48 h",stable
same,stability of KYNA,"[1]; pH 3 (MQ), 72 h",stable
same,stability of KYNA,"[1]; pH 3 (MQ), 96 h",unstable
same,stability of KYNA,"[1]; pH 4 (MQ + 150 mM NaCl), 0 h",stable
same,stability of KYNA,"[1]; pH 4 (MQ + 150 mM NaCl), 24 h",stable
same,stability of KYNA,"[1]; pH 4 (MQ + 150 mM NaCl), 48 h",stable
same,stability of KYNA,"[1]; pH 4 (MQ + 150 mM NaCl), 72 h",stable
same,stability of KYNA,"[1]; pH 4 (MQ + 150 mM NaCl), 96 h",unstable
same,stability of KYNA,"[1]; pH 4 (MQ), 0 h",stable
same,stability of KYNA,"[1]; pH 4 (MQ), 24 h",stable
same,stability of KYNA,"[1]; pH 4 (MQ), 48 h",stable
same,stability of KYNA,"[1]; pH 4 (MQ), 72 h",unstable
same,stability of KYNA,"[1]; pH 4 (MQ), 96 h",unstable
same,stability of KYNA,"[1]; pH 5 (MQ + 150 mM NaCl), 0 h",stable
same,stability of KYNA,"[1]; pH 5 (MQ + 150 mM NaCl), 24 h",stable
same,stability of KYNA,"[1]; pH 5 (MQ + 150 mM NaCl), 48 h",unstable
same,stability of KYNA,"[1]; pH 5 (MQ + 150 mM NaCl), 72 h",unstable
same,stability of KYNA,"[1]; pH 5 (MQ + 150 mM NaCl), 96 h",unstable
same,stability of KYNA,"[1]; pH 5 (MQ), 0 h",stable
same,stability of KYNA,"[1]; pH 5 (MQ), 24 h",stable
same,stability of KYNA,"[1]; pH 5 (MQ), 48 h",stable
same,stability of KYNA,"[1]; pH 5 (MQ), 72 h",stable
same,stability of KYNA,"[1]; pH 5 (MQ), 96 h",unstable
same,stability of KYNA,"[1]; pH 6 (MQ + 150 mM NaCl), 0 h",stable
same,stability of KYNA,"[1]; pH 6 (MQ + 150 mM NaCl), 24 h",stable
same,stability of KYNA,"[1]; pH 6 (MQ + 150 mM NaCl), 48 h",stable
same,stability of KYNA,"[1]; pH 6 (MQ + 150 mM NaCl), 72 h",stable
same,stability of KYNA,"[1]; pH 6 (MQ + 150 mM NaCl), 96 h",unstable
same,stability of KYNA,"[1]; pH 6 (MQ), 0 h",stable
same,stability of KYNA,"[1]; pH 6 (MQ), 24 h",stable
same,stability of KYNA,"[1]; pH 6 (MQ), 48 h",stable
same,stability of KYNA,"[1]; pH 6 (MQ), 72 h",unstable
same,stability of KYNA,"[1]; pH 6 (MQ), 96 h",unstable
same,stability of KYNA,"[1]; pH 7 (MQ + 150 mM NaCl), 0 h",stable
same,stability of KYNA,"[1]; pH 7 (MQ + 150 mM NaCl), 24 h",stable
same,stability of KYNA,"[1]; pH 7 (MQ + 150 mM NaCl), 48 h",stable
same,stability of KYNA,"[1]; pH 7 (MQ + 150 mM NaCl), 72 h",stable
same,stability of KYNA,"[1]; pH 7 (MQ + 150 mM NaCl), 96 h",unstable
same,stability of KYNA,"[1]; pH 7 (MQ), 0 h",stable
same,stability of KYNA,"[1]; pH 7 (MQ), 24 h",stable
same,stability of KYNA,"[1]; pH 7 (MQ), 48 h",stable
same,stability of KYNA,"[1]; pH 7 (MQ), 72 h",unstable
same,stability of KYNA,"[1]; pH 7 (MQ), 96 h",unstable
same,stability of KYNA,"[1]; pH 8 (MQ + 150 mM NaCl), 0 h",stable
same,stability of KYNA,"[1]; pH 8 (MQ + 150 mM NaCl), 24 h",stable
same,stability of KYNA,"[1]; pH 8 (MQ + 150 mM NaCl), 48 h",stable
same,stability of KYNA,"[1]; pH 8 (MQ + 150 mM NaCl), 72 h",stable
same,stability of KYNA,"[1]; pH 8 (MQ + 150 mM NaCl), 96 h",unstable
same,stability of KYNA,"[1]; pH 8 (MQ), 0 h",stable
same,stability of KYNA,"[1]; pH 8 (MQ), 24 h",stable
same,stability of KYNA,"[1]; pH 8 (MQ), 48 h",stable
same,stability of KYNA,"[1]; pH 8 (MQ), 72 h",stable
same,stability of KYNA,"[1]; pH 8 (MQ), 96 h",unstable
same,"Release rate, depending on the concentration, first-order kd",[2]; [6],0.0079 s⁻¹
same,"Release rate, diffusion controlled, Higuchi kd",[2]; [6],6.9 * 10^−0 s^−1/2
same,"Release rate, not depending on the concentration, zero-order kd",[2]; [6],0.63 s⁻¹
same,"Release rate, depending on the concentration, first-order kd",[2]; [7],0.0098 s⁻¹
same,"Release rate, diffusion controlled, Higuchi kd",[2]; [7],7.0 * 10^−0 s^−1/2
same,"Release rate, not depending on the concentration, zero-order kd",[2]; [7],0.0062 s⁻¹
same,"Release rate, depending on the concentration, first-order kd",[2]; [8],0.0015 s⁻¹
same,"Release rate, diffusion controlled, Higuchi kd",[2]; [8],4.9 * 10^−3 s^−1/2
same,"Release rate, not depending on the concentration, zero-order kd",[2]; [8],0.0004 s⁻¹
same,"Release rate, diffusion controlled, Higuchi kd",[2]; [9],1.2 * 10^−2 s^−1/2
same,"Release rate, not depending on the concentration, zero-order kd",[2]; [9],0.001 s⁻¹
same,kinetic model that characterizes / best fits the release,[2]; in vitro release profiles,Higuchi model
same,"Papp at 1 h, 20 µM",[3],3.71 ×10⁻⁶ cm/s
same,change of amplitude of somatosensory evoked potentials,[4],no significant change
"NCCc1ccc(O)c(O)c1 [DOPA, dopamine]",demonstrated stability until,[1]; pH 7.4,72 h
"CC(C)Cc1ccc(C(C)C(=O)O)cc1 (stereo not shown) [IBU, ibuprofen]","Release rate, depending on the concentration, first-order kd",[2]; [10],0.0064 s⁻¹
same,"Release rate, diffusion controlled, Higuchi kd",[2]; [10],5.6 * 10^−0 s^−1/2
same,"Release rate, not depending on the concentration, zero-order kd",[2]; [10],0.5 s⁻¹
same,"Release rate, depending on the concentration, first-order kd",[2]; [11],0.011 s⁻¹
same,"Release rate, diffusion controlled, Higuchi kd",[2]; [11],8.7 * 10^−0 s^−1/2
same,"Release rate, not depending on the concentration, zero-order kd",[2]; [11],0.77 s⁻¹
"Nc1ccccc1C(=O)C[C@H](N)C(=O)O [L-KYN, L-kynurenin]",change of amplitude of somatosensory evoked potentials,[4],no significant change
O=C([O-])c1ccccc1-c1c2ccc(=O)cc-2oc2cc([O-])ccc12.[Na+].[Na+] [Na-fluoresceine],permeability coefficient Pe,[5],2.96*10^−6 cm/s
